Measured values as given in patent US20030049807A1, “Micro-organism possessing enantioselective and regioselective nitrile hydratase/amidase activities” (priority 2001, published 2003).

What was measured:
[1] = tested on: nitrile-hydratase/amidase activity of the wild type strain; assay: Nitrile-hydratase/amidase activity of the wild type parent strain after induction with valeronitrile; assay type: cell-based, Agrobacterium radiobacter; details: wild type strain sub-cultured with butyronitrile, induced with valeronitrile
Method: The parent strain, characterised as Agrobacterium radiobacter, was isolated from a crude bacterial extract with antibiotic activity. In order to determine activity towards nitrilic substrates, it was sub-cultured in medium containing butyronitrile and after some passages and induction with valeronitrile, a weak nitrile-hydratase/amidase activity was measured on benzoylphenylpropionitrile (BPN) of the wild type strain as such selected. To obtain a semi-constitutive strain, an aliquot of wild type parent strain was subjected to a treatment of mutagenesis, constituted by two treatment cycles with ethylmethanesulphonate, one cycle with nitrosoguanidine and two of mutagenesis with UV irradiation.

[2] = tested on: nitrile hydratase/amidase activity of bacterial pellet of strain NCIMB 41108; assay: Enzymatic activity of the whole-cell biocatalyst (wet bacterial pellet) towards nitrile/amide substrates, HPLC or GC; assay type: cell-based, Agrobacterium radiobacter 30″60; details: 30° C.; for enzymatic activity: 50 mg substrate, 250 mg wet pellet
Method: The enzymatic activity was evaluated using a bacterial pellet obtained after fermentation for 48 hours in fermentation medium as described below. Briefly, the culture was amplified from a single colony to begin with in a small volume of inoculating medium and then, for preparative purposes, in 100 ml of fermentation medium.
Fermentation medium: MgSO4 (0.5 g l^−1), ,CaCl2.6H2O (0.1 g l^−1), FeSO4 (0.4 g l^−1), CoCl2 (0.1 g l^−1), MnSO4 (0.01 g l^−1), (NH4)2SO4 (5 g l^−1), Yeast Extract (10 g l^31 1). The inducer, or the inducers, were added to the fermentation medium alone or in combination, sterilely, to a final concentration comprised of between 0.5-5 g/L. In particular, if not stated differently, valeronitrile, N-butyronitrile, isobutyronitrile and ε-caprolactam were used at a concentration respectively of 2.5 g/l and added in a single solution at the start of the process. To measure the basal activity of the strain 41108, no inducer was added to the fermentation medium.
Inoculation. […]
Reaction scheme. […] At preset time intervals, aliquots of the mixture were sterilely removed with a syringe, using a Minisart RC 25 filter 0,22 μm (Sartorius, Germany) and directly analysed by HPLC. The enzymatic activity was determined by the mean activity measured in the initial, linear phase of the conversion curve, relative to the wet weight of the bacterial paste. […]
Evaluation of the conversion percentages and of the enantiomeric excess. The percentage conversion of the substrate was measured by reverse phase HPLC using a reverse phase column of dimensions: 250×4.6 mm; 10 μm (Lichrosorb 10 RP18), and phosphate buffer at various percentages (10 mM, pH 2.5 e 3.5) with acetonitrile at 40 or 50% depending on the molecule to be detected. […] The e.e. values of the reaction products obtained from benzoylphenylpropionitrile were determined by HPLC fitted with a chiral column (dimensions: 100×4 mm; Chromtech AGP-column) and phosphate buffer used as eluent (10 mM, pH 7.0) with isopropanol (1%, v/v) and dimethyloctylamine (0,02%, v/v). […]

## CC(C#N)c1cccc(C(=O)c2ccccc2)c1 (racemic) [benzoylphenylpropionitrile, 2-(3-benzoylphenyl)propionitrile]
[1]
  nitrile-hydratase/amidase activity: weak

## CC(C#N)c1ccc(-c2ccccc2)c(F)c1 (stereo not drawn) [2-fluoro-α-methyl[1,1′-diphenyl]-4-acetonitrile]
[2]; pellet induced with valeronitrile 0,2%, 24 hours
  enzymatic activity: 0.26 IU g^−1 of wet cells

## CC(C#N)c1cccc(Oc2ccccc2)c1 (stereo not drawn) [α-methyl-3-phenoxibenzen-acetonitrile]
[2]; pellet induced with valeronitrile 0,25%, 1 hour
  enzymatic activity: 5.23 IU g^−1 of wet cells

## CC(C#N)c1ccccc1 (stereo not drawn) [α-methylbenzyl cyanide]
[2]; pellet induced with valeronitrile and ε-caprolactam 0,25%, comparator not given
  rate of transformation, times higher: approximately 20 times
